This passage reports Ki results from US9738655B2, “Tetrahydroisoquinolines containing substituted azoles as factor XIa inhibitors” (BRISTOL-MYERS SQUIBB COMPANY, priority 2013, dated 2017).

Assay [1] has as its target purified human plasma kallikrein (Homo sapiens (Human), UniProt P03952). In words: Plasma kallikrein enzyme inhibition assay (chromogenic substrate S-2302). In kind it is biochemical.
Assay [2] addresses purified human Factor XIa (Homo sapiens (Human), UniProt P03951). Nature of the assay: Factor XIa enzyme inhibition assay (chromogenic substrate S-2366). The note with it: read-out: Factor XIa Ki; measured at 25° C.
The mark [3] stands for this setting: measured at 25° C. (no asterisk).

Each structure is given as a SMILES string. Counter-ions that a name gives are not always drawn.

Chain of purified human Factor XIa (P03951 388-625): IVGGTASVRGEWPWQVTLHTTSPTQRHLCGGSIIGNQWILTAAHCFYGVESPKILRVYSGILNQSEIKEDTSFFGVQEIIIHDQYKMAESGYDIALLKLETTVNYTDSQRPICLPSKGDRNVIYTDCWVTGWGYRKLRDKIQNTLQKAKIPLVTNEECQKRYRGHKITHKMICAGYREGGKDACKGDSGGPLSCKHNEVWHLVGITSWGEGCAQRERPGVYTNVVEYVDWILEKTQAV
Chain of purified human Factor XIa (P03951 19-387 partner): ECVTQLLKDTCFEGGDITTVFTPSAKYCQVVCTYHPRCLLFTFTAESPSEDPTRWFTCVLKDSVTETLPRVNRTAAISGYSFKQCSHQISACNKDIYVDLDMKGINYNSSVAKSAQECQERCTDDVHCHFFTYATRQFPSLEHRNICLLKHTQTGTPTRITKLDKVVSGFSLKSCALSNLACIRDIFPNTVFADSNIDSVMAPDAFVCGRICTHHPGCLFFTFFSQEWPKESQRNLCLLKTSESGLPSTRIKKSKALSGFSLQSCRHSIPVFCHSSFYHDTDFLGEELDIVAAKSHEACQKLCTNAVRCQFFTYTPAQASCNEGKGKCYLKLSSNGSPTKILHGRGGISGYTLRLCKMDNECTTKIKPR
Chain of purified human plasma kallikrein (P03952 391-638): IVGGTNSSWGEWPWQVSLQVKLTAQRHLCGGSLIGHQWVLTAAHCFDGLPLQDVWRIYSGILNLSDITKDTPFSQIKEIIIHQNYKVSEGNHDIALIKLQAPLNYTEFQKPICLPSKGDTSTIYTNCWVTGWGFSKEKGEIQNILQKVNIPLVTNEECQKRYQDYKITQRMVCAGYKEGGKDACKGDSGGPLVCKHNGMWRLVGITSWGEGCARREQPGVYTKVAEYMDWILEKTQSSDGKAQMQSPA
Chain of purified human plasma kallikrein (P03952 20-390 partner): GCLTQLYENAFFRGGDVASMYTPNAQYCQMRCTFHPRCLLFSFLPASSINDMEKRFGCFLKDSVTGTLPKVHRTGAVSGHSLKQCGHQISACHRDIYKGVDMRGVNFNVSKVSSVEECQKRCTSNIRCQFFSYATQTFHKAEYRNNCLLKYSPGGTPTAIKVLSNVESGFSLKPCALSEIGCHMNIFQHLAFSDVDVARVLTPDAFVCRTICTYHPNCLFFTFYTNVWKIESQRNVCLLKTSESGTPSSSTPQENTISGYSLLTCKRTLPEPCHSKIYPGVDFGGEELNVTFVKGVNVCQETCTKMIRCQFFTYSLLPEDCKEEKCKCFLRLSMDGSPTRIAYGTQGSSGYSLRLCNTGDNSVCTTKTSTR

One may read the Ki as a measure of affinity in units of concentration, obtained from inhibition or displacement. Take `O=C(Nc1ccc2cnccc2c1)C1c2cccc(-c3cncnc3)c2CCN1C(=O)c1cn(-c2cccc(Cl)c2F)nn1` (stereo not drawn) [Example 130, 2-(1-(3-chloro-2-fluorophenyl)-1H-1,2,3-triazol-4-carbonyl)-N-(isoquinolin-6-yl)-5-(pyrimidin-5-yl)-1,2,3,4-tetrahydroisoquinoline-1-carboxamide, TFA salt]: the Ki in assay [1] (measured at 37° C. (*)) was 0.126 µM; in assay [2], 0.0283 µM.

Take `O=C(Nc1ccc(-c2ncn[nH]2)cc1)C1c2cccc(-c3cncnc3)c2CCN1C(=O)c1cn(-c2cccc(Cl)c2F)nn1` (stereo not drawn) [Example 131, N-(4-(1H-1,2,4-triazol-5-yl)phenyl)-2-(1-(3-chloro-2-fluorophenyl)-1H-1,2,3-triazole-4-carbonyl)-5-(pyrimidin-5-yl)-1,2,3,4-tetrahydroisoquinoline-1-carboxamide, TFA salt]: the inhibition constant Ki in assay [1] (measured at 37° C. (*)) was 0.0603 µM; in assay [2], under 0.005 µM.

For `COC(=O)[C@H]1CC[C@@H](NC(=O)C2c3cccc(-c4cncnc4)c3CCN2C(=O)c2cn(-c3cccc(Cl)c3F)nn2)CC1` (stereo partly drawn) [Example 132, (1R,4R)-methyl 4-(2-(1-(3-chloro-2-fluorophenyl)-1H-1,2,3-triazole-4-carbonyl)-5-(pyrimidin-5-yl)-1,2,3,4-tetrahydroisoquinoline-1-carboxamido) cyclohexanecarboxylate], the Ki in assay [1] (measured at 37° C. (*)) was determined as 1.62 µM; in assay [2], 0.124 µM.

Regarding `O=C(Nc1ccc(-c2ncc[nH]2)cc1)[C@@H]1c2cccc(-c3cncnc3)c2CCN1C(=O)[C@H]1CC(c2cccc(Cl)c2F)=NO1` [Example 134, (S)-N-(4-(1H-Imidazol-2-yl)phenyl)-2-((R)-3-(3-chloro-2-fluorophenyl)-4,5-dihydroisoxazole-5-carbonyl)-5-(pyrimidin-5-yl)-1,2,3,4-tetrahydroisoquinoline-1-carboxamide, TFA salt], the Ki in assay [1] (measured at 37° C. (*)) was 0.0244 µM; in assay [2], under 0.005 µM.

`O=C(Nc1ccc(-c2ncc[nH]2)cc1)[C@H]1c2cccc(-c3cncnc3)c2CCN1C(=O)[C@H]1CC(c2cccc(Cl)c2F)=NO1` [Example 135, (R)-N-(4-(1H-imidazol-2-yl)phenyl)-2-((R)-3-(3-chloro-2-fluorophenyl)-4,5-dihydroisoxazole-5-carbonyl)-5-(pyrimidin-5-yl)-1,2,3,4-tetrahydroisoquinoline-1-carboxamide TFA salt]: the Ki is 0.399 µM in assay [1] (measured at 37° C. (*)) and under 0.005 µM in assay [2].

For the compound `Cc1c(C(=O)N2CCc3c(-c4cncnc4)cccc3C2C(=O)Nc2ccc(-c3ncc[nH]3)cc2)ncn1-c1cccc(Cl)c1F` (stereo not drawn) [Example 136, N-(4-(1H-Imidazol-2-yl)phenyl)-2-(1-(3-chloro-2-fluorophenyl)-5-methyl-1H-imidazole-4-carbonyl)-5-(pyrimidin-5-yl)-1,2,3,4-tetrahydroisoquinoline-1-carboxamide, 2 TFA salt], the results for the inhibition constant Ki in assay [1] (measured at 37° C. (*)) and in assay [2] were 0.157 µM and 0.00697 µM, respectively.

As for `O=C(Nc1ccc(-c2ncc[nH]2)cc1)C1c2cccc(-c3cncnc3)c2CCN1C(=O)c1cn(-c2cccc(Cl)c2F)cn1` (stereo not drawn) [Example 137, N-(4-(1H-Imidazol-2-yl)phenyl)-2-(1-(3-chloro-2-fluorophenyl)-1H-imidazole-4-carbonyl)-5-(pyrimidin-5-yl)-1,2,3,4-tetrahydroisoquinoline-1-carboxamide, 2 TFA], the inhibition constant Ki in assay [1] (measured at 37° C. (*)) was 0.0534 µM; in assay [2], under 0.005 µM.

For `O=C(Nc1ccc(-c2ncc[nH]2)cc1)[C@@H]1c2cccc(-c3cncnc3)c2CCN1C(=O)c1cn(-c2cccc(Cl)c2F)nn1` [Example 138, (S)-N-(4-(1H-Imidazol-2-yl)phenyl)-2-(1-(3-chloro-2-fluorophenyl)-1H-1,2,3-triazole-4-carbonyl)-5-(pyrimidin-5-yl)-1,2,3,4-tetrahydroisoquinoline-1-carboxamide, TFA salt], the Ki in assay [1] (measured at 37° C. (*)) is 0.0259 µM; in assay [2], under 0.005 µM.

In the case of `O=C(Nc1ccc(-c2ncc[nH]2)cc1)[C@H]1c2cccc(-c3cncnc3)c2CCN1C(=O)c1cn(-c2cccc(Cl)c2F)nn1` [Example 139, (R)-N-(4-(1H-Imidazol-2-yl)phenyl)-2-(1-(3-chloro-2-fluorophenyl)-1H-1,2,3-triazole-4-carbonyl)-5-(pyrimidin-5-yl)-1,2,3,4-tetrahydroisoquinoline-1-carboxamide, TFA salt], the Ki in assay [1] (measured at 37° C. (*)) is over 13 µM; in assay [2], 0.133 µM.

On to `COC1CCN(c2cccc3c2CCN(C(=O)c2nnn(-c4cccc(Cl)c4F)c2C)C3C(=O)Nc2ccc(-c3ncc[nH]3)cc2)CC1` (stereo not drawn) [Example 140, N-(4-(1H-Imidazol-2-yl)phenyl)-2-(1-(3-chloro-2-fluorophenyl)-5-methyl-1H-1,2,3-triazole-4-carbonyl)-5-(4-methoxypiperidin-1-yl)-1,2,3,4-tetrahydroisoquinoline-1-carboxamide, 2 TFA salt], for which the Ki in assay [1] (measured at 37° C. (*)) is 2.37 µM; in assay [2], 0.0397 µM.

Regarding `COC1CCN(c2cccc3c2CCN(C(=O)c2cn(-c4cccc(Cl)c4F)nn2)C3C(=O)Nc2ccc(-c3ncc[nH]3)cc2)CC1` (stereo not drawn) [Example 141, N-(4-(1H-Imidazol-2-yl)phenyl)-2-(1-(3-chloro-2-fluorophenyl)-1H-1,2,3-triazole-4-carbonyl)-5-(4-methoxypiperidin-1-yl)-1,2,3,4-tetrahydroisoquinoline-1-carboxamide, 2 TFA], the results for the Ki in assay [1] (measured at 37° C. (*)) and in assay [2] were 0.161 µM and 0.00595 µM, respectively.

Turning to `O=C(NC12CCC(C(=O)O)(CC1)CC2)C1c2cccc(-c3cncnc3)c2CCN1C(=O)c1cn(-c2cccc(Cl)c2F)nn1` (stereo not drawn) [Example 143, 4-(2-{[1-(3-Chloro-2-fluorophenyl)-1H-1,2,3-triazol-4-yl]carbonyl}-5-(pyrimidin-5-yl)-1,2,3,4-tetrahydroisoquinoline-1-amido)bicyclo[2.2.2]octane-1-carboxylic acid, 1 TFA], the inhibition constant (Ki) worked out at 0.237 µM in assay [1] (measured at 37° C. (*)) and 0.00523 µM in assay [2].

Turning to `COC1CCN(c2cccc3c2CCN(C(=O)c2cc(C)n(-c4ccc(Cl)cc4)c2C)C3C(=O)Nc2ccc(C(=O)O)cc2)CC1` (stereo not drawn) [Example 147, 4-(2-(1-(4-chlorophenyl)-2,5-dimethyl-1H-pyrrole-3-carbonyl)-5-(4-methoxypiperidin-1-yl)-1,2,3,4-tetrahydroisoquinoline-1-carboxamido)benzoic acid, TFA salt], the Ki was over 6 µM in assay [1] (measured at 37° C. (*)) and 2.69 µM in assay [2].

With `COC1CCN(c2cccc3c2CCN(C(=O)c2cnn(-c4cccc(Cl)c4)c2C(F)(F)F)C3C(=O)Nc2ccc(C(=O)O)cc2)CC1` (stereo not drawn) [Example 150, 4-(2-(1-(3-chlorophenyl)-5-(trifluoromethyl)-1H-pyrazole-4-carbonyl)-5-(4-methoxypiperidin-1-yl)-1,2,3,4-tetrahydroisoquinoline-1-carboxamido)benzoic acid, TFA salt], the Ki was over 6 µM in assay [1] (measured at 37° C. (*)) and 2.6 µM in assay [2].

In the case of `COc1ncccc1-c1cccc2c1CCN(C(=O)c1cn(-c3cccc(Cl)c3F)nn1)C2C(=O)Nc1ccc(C(=O)O)cc1` (stereo not drawn) [Example 153, 4-(2-(1-(3-chloro-2-fluorophenyl)-1H-1,2,3-triazole-4-carbonyl)-5-(2-methoxypyridin-3-yl)-1,2,3,4-tetrahydroisoquinoline-1-carboxamido)benzoic acid, TFA salt], the Ki in assay [1] (setting [3]) was 0.0622 µM; in assay [2], 0.00573 µM.

In the case of `CN(C)Cc1ccc(-c2cccc3c2CCN(C(=O)c2cn(-c4cccc(Cl)c4F)nn2)C3C(=O)Nc2ccc(C(=O)O)cc2)cc1` (stereo not drawn) [Example 154, 4-(2-(1-(3-chloro-2-fluorophenyl)-1H-1,2,3-triazole-4-carbonyl)-5-(4-((dimethylamino)methyl)phenyl)-1,2,3,4-tetrahydroisoquinoline-1-carboxamido)benzoic acid, TFA salt], the Ki is 0.00526 µM in assay [1] (setting [3]) and under 0.005 µM in assay [2].

For the compound `NS(=O)(=O)c1cccc(-c2cccc3c2CCN(C(=O)c2cn(-c4cccc(Cl)c4F)nn2)C3C(=O)Nc2ccc(C(=O)O)cc2)c1` (stereo not drawn) [Example 155, 4-(2-(1-(3-chloro-2-fluorophenyl)-1H-1,2,3-triazole-4-carbonyl)-5-(3-sulfamoylphenyl)-1,2,3,4-tetrahydroisoquinoline-1-carboxamido)benzoic acid], the inhibitory constant (Ki) in assay [1] (setting [3]) was 0.0239 µM; in assay [2] it was under 0.005 µM.

Regarding `Cn1ncc2cc(-c3cccc4c3CCN(C(=O)c3cn(-c5cccc(Cl)c5F)nn3)C4C(=O)Nc3ccc(C(=O)O)cc3)ccc21` (stereo not drawn) [Example 156, 4-(2-(1-(3-chloro-2-fluorophenyl)-1H-1,2,3-triazole-4-carbonyl)-5-(1-methyl-1H-indazol-5-yl)-1,2,3,4-tetrahydroisoquinoline-1-carboxamido)benzoic acid], the inhibition constant Ki is 0.0301 µM in assay [1] (setting [3]) and under 0.005 µM in assay [2].

Turning to `O=C(O)c1ccc(NC(=O)C2c3cccc(-c4ccc5c(c4)OCO5)c3CCN2C(=O)c2cn(-c3cccc(Cl)c3F)nn2)cc1` (stereo not drawn) [Example 157, 4-(5-(benzo[d][1,3]dioxol-5-yl)-2-(1-(3-chloro-2-fluorophenyl)-1H-1,2,3-triazole-4-carbonyl)-1,2,3,4-tetrahydroisoquinoline-1-carboxamido)benzoic acid], the Ki was 0.0295 µM in assay [1] (setting [3]) and under 0.005 µM in assay [2].

Regarding `O=C(O)c1ccc(NC(=O)C2c3cccc(-c4cnoc4)c3CCN2C(=O)c2cn(-c3cccc(Cl)c3F)nn2)cc1` (stereo not drawn) [Example 159, 4-(2-(1-(3-chloro-2-fluorophenyl)-1H-1,2,3-triazole-4-carbonyl)-5-(isoxazol-4-yl)-1,2,3,4-tetrahydroisoquinoline-1-carboxamido)benzoic acid], the inhibition constant (Ki) in assay [1] (setting [3]) was 0.0219 µM; in assay [2], 0.0132 µM.

In the case of `O=C(O)c1ccc(NC(=O)C2c3cccc(-c4ccc5cn[nH]c5c4)c3CCN2C(=O)c2cn(-c3cccc(Cl)c3F)nn2)cc1` (stereo not drawn) [Example 161, 4-(2-(1-(3-chloro-2-fluorophenyl)-1H-1,2,3-triazole-4-carbonyl)-5-(1H-indazol-6-yl)-1,2,3,4-tetrahydroisoquinoline-1-carboxamido)benzoic acid], the inhibition constant Ki is 0.00246 µM in assay [1] (setting [3]) and under 0.005 µM in assay [2].
